Test results published in patent US20120238532A1, “TREATMENT OF HUMAN OSTEOSARCOMA” (CEDARS-SINAI MEDICAL CENTER, priority 2009, published 2012).

Tests used:
SAOS-2 cells [1] = test: Cell cycle analysis (PI, FACS), SAOS-2; assay type: cell-based, human
Method: (§1) Cells were harvested and fixed with 70% ethanol at regular time intervals. Fixed cells were stained with propidium iodide (PI) for flow cytometry analysis using BD FACScan (BD Biosciences, San Jose, Calif.). Distribution of cell cycle was analyzed by ModFit LT V2.0 software (Verity Software House, Topsham, Me.). […] After 24, 48, and 72 hours of exposure, cells were harvested and stained with PI and fluorescein isothiocyanate (FITC) using Annexin V-FITC apoptosis detection kit (BD Biosciences) according to the manufacturer's protocol. Cells were subjected to flow cytometry analysis within one hour of staining.

ERK = test: Western blotting, ERK phosphorylation; assay type: cell-based, human; details: MG-63 and SAOS-2 cells
Method: (§2) Changes in protein level by CuB were checked by Western blotting. […] After 2, 9, and 20 hours of exposure, cells were harvested and immediately lysed with RIPA buffer (Millipore—Upstate, Temecula, Calif.) supplemented with protease inhibitor cocktail (Roche, San Francisco, Calif.), 0.5 mM PMSF (Roche), and 50 mM NaF (Sigma). After 20 minutes of incubation on ice, protein concentrations were measured by Bradford assay with Bio Rad protein assay solution (Bio-Rad, Hercules, Calif.) and samples were adjusted to the same protein concentration. Samples were mixed with 2× Laemmli sample buffer (Bio-Rad) with 5% β-mercaptoethanol (Sigma) and incubated at 95° C. for 10 min to denature the protein. After brief incubation on ice, proteins were separated by SDS-PAGE, transferred to nitrocellulose membrane (Sigma), and blotted with antibodies from either Cell Signaling Technology (Danvers, Mass.) or Santa Cruz Biotechnology (Santa Cruz, Calif.). Target proteins were visualized by Supersignal West Dura Substrate (Thermo-Pierce, Rockford, Ill.). GAPDH protein was used as a loading control.

MG-63 cells [2] = test: Cell cycle analysis (PI, FACS), MG-63; assay type: cell-based, human
Method: as §1

MG-63 cells [3] = test: Annexin V-FITC apoptosis assay, MG-63; assay type: cell-based, human; details: at ED50, 72 hours of exposure
Method: as §1

[4] = tested on: phospho-mTOR (S2448) and survivin; test: Western blots from snap-frozen xenograft tumors; assay type: in vivo; details: mice treated with LD-CuB, day 35
Method: as §2, with “Target proteins were visualized by Supersignal West Dura Substrate (Thermo-Pierce, Rockford, Ill.). GAPDH protein was used as a loading control.” left out
All animal experiments strictly followed the guidelines of Cedars-Sinai Medical Center and the National Institute of Health (NIH). […] After 24 hours, tumor size was measured, and any outliers were ruled out by one-way analysis of variance (ANOVA) test. […] Body weights were monitored every 2 days. Tumor size was measured every 2 days, and the tumor volume was calculated using the following formula: A (length)×B (width)×C (height)×0.5236 (16). […]

[5] = tested on: clonogenic hematopoietic cells; test: Colony-forming cell (CFC) assays of bone marrow; details: day 35, 2 × 10^4 cells/well
Method: Whole blood samples were obtained by submandibular bleeding and serum samples were harvested with serum separator tubes (BD Biosciences). Blood count and serum chemistry results were obtained by the Hemagen Analyst Benchtop Chemistry System (Hemagen Diagnostics, Inc. Columbia, Md.). Colony-forming cell (CFC) assays were performed as previously described (18).

SAOS-2 cells [6] = test: Annexin V-FITC apoptosis assay, SAOS-2; assay type: cell-based, human; details: at ED50, 72 hours of exposure
Method: as §1

MG-63 cells [7] = test: MTT assay, MG-63 (dose-response, pulse-exposure, combination); assay type: cell-based, human; details: pulse-exposed at ED50 for 2, 9, and 20 hours
Method: (§3) 7 human OS cell lines (U2OS, G292, MG-63, HT-161, HOS, SAOS-2, and SJSA) were used in the study. Each cell line except HT-161 was obtained from the American Type Culture Collection (ATCC, Rockville, Md.). HT-161 was obtained from Dr. Emil Bogenmann (13). All cell lines were tested and authenticated prior to use according to cell line verification test recommendations by ATCC. OS cell lines were maintained in DMEM medium (Mediatech Inc., Herndon, Va.) supplemented with 10% fetal bovine serum (FBS; Atlanta Biological, Lawrenceville, Ga.) in a humidified incubator at 37° C. supplied with 5% CO2. Only the cells in exponential growth phase were used in the study.
(§4) Cell growth and survival were measured by 3-(4,5-dimethylthiazol-2-yl)-2,5-diphenyltetrazolium bromide (MTT) assay. […] After 48 hours of incubation, 10 μl of 5 mg/ml MTT solution (Sigma-Aldrich, St. Louis, Mo.) was added to each well and incubated further for 2 hours. […] For pulse-exposure experiments, MG-63 and SAOS-2 cells were seeded in 96-well plates and exposed to CuB at their ED50. After 2, 9, and 20 hours of exposure, cells were washed twice with PBS and incubated further in CuB-free media. Cell growth was checked by MTT assay at 24, 48, and 72 hours.
(§5) Calcusyn 2.0 (Biosoft, Ferguson, Mo.) was used for CI analysis.

SAOS-2 cells [8] = test: MTT assay, SAOS-2 (dose-response, pulse-exposure, combination); assay type: cell-based, human; details: pulse-exposed at ED50 for 2, 9, and 20 hours
Method: as §3, §4, §5

SAOS-2 cells [9] = test: Morphological changes (crystal violet staining), SAOS-2; assay type: cell-based, human
Method: FIG. 2. (A) Graphical representation of the effect of CuB on MG-63 and SAOS-2 cells. Cells were exposed to CuB at their ED50 (70 nM for MG-63 and 50 nM for SAOS-2 cells). Time-dependent antiproliferative activity of CuB on MG-63 and SAOS-2 cells measured by pulse-exposure experiments. Cells were exposed to CuB for 2, 9, or 20 hours, washed extensively, and cultured in the absence of CuB for an additional 24, 48, and 72 hours. Cell growth was measured by MTT assay. Measurements were repeated in triplicates. Data represent mean±SD. Asterisks (**) represent p<0.001 vs DMSO control by t-test. (B) Morphological changes of MG-63 and SAOS-2 cells after exposure to cucurbitacin B. Cells with normal morphology (top) were compared to rounded cells (middle) and multinucleated cells (bottom). […] Representative cells are shown. 400×; scale bar=50 μm. (C) Graphical representation of G2/M cell cycle arrest after 20 hours of exposure to cucurbitacin B. Cells were stained with propidium iodide (PI) and analyzed by FACS. (D) Graphical representation of apoptosis after 72 hours of exposure to cucurbitacin B. Cells were stained with PI and Annexin V-FITC, and analyzed by FACS.

Question: How did the “increase of G2/M phase” value (SAOS-2 cells [1]; 20 hours of exposure) turn out when `CC(=O)OC(C)(C)/C=C/C(=O)[C@](C)(O)[C@H]1[C@H](O)C[C@@]2(C)[C@@H]3CC=C4[C@H](C[C@H](O)C(=O)C4(C)C)[C@]3(C)C(=O)C[C@]12C` [CuB, cucurbitacin B] was run?
Answer: around 3 fold

Question: And the G2/M phase (SAOS-2 cells [1]; 20 hours of exposure at ED50 (control 15%))?
Answer: 42%

Question: What about the ERK phosphorylation (ERK) of the same molecule?
Answer: inhibited ERK phosphorylation without changing the total levels of ERK in both cells

Question: What about the “increase of G2/M phase” value (MG-63 cells [2]; 20 hours of exposure) of the same molecule?
Answer: around 3 fold

Question: And the G2/M phase (MG-63 cells [2]; 20 hours of exposure at ED50 (control 27%))?
Answer: 76%

Question: What about the apoptotic cells (MG-63 cells [3]) of the same molecule?
Answer: 44%

Question: What about the “phospho-mTOR (S2448) and survivin in tumors” value [4] of the same molecule?
Answer: decreased amount of phospho-mTOR (S2448) and its downstream target survivin

Question: And the “BFU-E, number of colonies” value ([5]; HD-CuB 1.0 mg/kg)?
Answer: 8.3 ± 1.6

Question: And the “CFU-GEMM, number of colonies” value ([5]; HD-CuB 1.0 mg/kg)?
Answer: 3.8 ± 0.8

Question: What about the “CFU-GM, number of colonies” value ([5]; HD-CuB 1.0 mg/kg) of the same molecule?
Answer: 64.6 ± 4.6

Question: What about the “BFU-E, number of colonies” value ([5]; LD-CuB 0.5 mg/kg) of the same molecule?
Answer: 9.7 ± 1.4

Question: And the “CFU-GEMM, number of colonies” value ([5]; LD-CuB 0.5 mg/kg)?
Answer: 4.2 ± 0.8

Question: What about the “CFU-GM, number of colonies” value ([5]; LD-CuB 0.5 mg/kg) of the same molecule?
Answer: 69.8 ± 3.0

Question: And the apoptotic cells (SAOS-2 cells [6])?
Answer: 96%

Question: What about the “cell death after pulse-exposure” value (MG-63 cells [7]) of the same molecule?
Answer: longer exposure to CuB induced more cell death

Question: What about the “cell death after pulse-exposure” value (SAOS-2 cells [8]) of the same molecule?
Answer: longer exposure to CuB induced more cell death

Question: What about the morphological changes (SAOS-2 cells [9]; 2 hour exposure) of the same molecule?
Answer: Rapid loss of pseudopodia and rounding

Question: And the morphological changes (SAOS-2 cells [9]; 9 hour-exposure)?
Answer: multinuclearity which was not reversed by CuB removal
